Tested on: CD8+ T cells in CD4-depleted PBMC
Assay: Precursor frequency analysis of CD8+ T cells recognizing MBP-derived peptides (split-well method, [3H]-thymidine proliferation)
Format: cell-based, human
Conditions: MS patients vs healthy controls; p<0.05 for MBP111-119 and MBP87-95

Substance	frequency of peptide-recognizing CD8+ T cells in MS patients compared with control subjects
SLSRFSWGA [SEQ ID NO. 2, Fragment of human MBP, amino acids 111-119]	considerably higher
immunodominant epitope (residues 830-838) of tetanus toxoid: synthetic peptide corresponding to an immunodominant peptide of tetanus toxoid (residues 830-838), used as control (QYIKANSKF; UniProt P04958 830-838, looked up, fragment) [reference compound]	did not differ significantly
MBPVVHFFKNIV [SEQ ID NO. 1, Fragment of human MBP, amino acids 87-95]	considerably higher

Reference: patent US20100183546A1, “Method for Increasing CD8+ Cytotoxic T Cell Responses and for Treating Multiple Sclerosis” (Baylor College of Medicine, priority 2003, published 2010)
